Laboratory results: US10844092B2, “Peptide for promoting regeneration of dentin or dental pulp tissue” (HysensBio Co., Ltd., priority 2016, dated 2020)

Tested on: Dspp gene
Assay: mRNA level of Dspp gene in MDPC-23 cells by real-time PCR
Assay type: cell-based, mouse
Conditions: 48 hours, ratio relative to Dspp mRNA level of control group, triplicate
Protocol: The MDPC-23 cells cultured in Example 2-1 were treated with the peptides of the respective groups which were synthesized in Example 1, and cultured for 48 hours. Then, mRNA levels of an odontoblast differentiation marker Dspp gene expressed in the MDPC-23 cells were measured, and a ratio of the measured Dspp mRNA level relative to a Dspp mRNA level measured in a control group was calculated, respectively (Tables 13 to 24). Further, mean values of the Dspp mRNA levels measured in the peptides of respective groups were compared between the groups (FIG. 1B). In this regard MDPC-23 cells which were treated with none of the peptides of the present invention were used as a control group.
The expression levels of the Dspp gene were measured by RT-PCR and real time PCR analysis: In detail, total RNA was extracted from the MDPC-23 cells with TRIzol reagent. 2 μg of the total RNA, 1 μl of reverse transcriptase, and 0.5 μg oligo (dT) were used to synthesize cDNA. The synthesized cDNA were used in real-time polymerase chain reaction. The real-time polymerase chain reaction was performed on an ABI PRISM 7500 sequence detection system (Applied Biosystems) using the following primers and a SYBR GREEN PCR Master Mix (Takara, Japan). The real-time polymerase chain reaction was performed under conditions of 94° C., 1 min; 95° C., 15 sec 60° C., 34 sec for 40 cycles. Results were analyzed by a comparative cycle threshold (CT) method. In this regard, Gapdh gene was used as an internal control. The experiments were performed in triplicate, and then mean values and standard deviations thereof were taken as measured values.

Substance	mRNA level of Dspp gene, Mean
1 (KYQRRKKNKY; Synthetic construct of novel peptide) [compound 1]	1.754
2 (KYQRRKRNKY; Synthetic construct of novel peptide) [compound 2]	1.646
3 (KYQRRRKNKY; Synthetic construct of novel peptide) [compound 3]	1.464
4 (KYQRRRRNKY; Synthetic construct of novel peptide) [compound 4]	1.855
5 (KYQRKKKNKY; Synthetic construct of novel peptide) [compound 5]	1.639
6 (KYQRKRKNKY; Synthetic construct of novel peptide) [compound 6]	1.746
7 (KYQRKKRNKY; Synthetic construct of novel peptide) [compound 7]	1.864
8 (KYQRKRRNKY; Synthetic construct of novel peptide) [compound 8]	1.639
9 (KYQRRKKSKY; Synthetic construct of novel peptide) [compound 9]	1.854
10 (KYQRRKRSKY; Synthetic construct of novel peptide) [compound 10]	1.746
11 (KYQRRRKSKY; Synthetic construct of novel peptide) [compound 11]	1.639
12 (KYQRRRRSKY; Synthetic construct of novel peptide) [compound 12]	1.548
13 (KYQRKKKSKY; Synthetic construct of novel peptide) [compound 13]	1.685
14 (KYQRKRKSKY; Synthetic construct of novel peptide) [compound 14]	1.846
15 (KYQRKKRSKY; Synthetic construct of novel peptide) [compound 15]	1.964
16 (KYQRKRRSKY; Synthetic construct of novel peptide) [compound 16]	1.739
17 (KYQRRKKNYK; Synthetic construct of novel peptide) [compound 17]	2.117
18 (KYQRRKRNYK; Synthetic construct of novel peptide) [compound 18]	2.319
19 (KYQRRRKNYK; Synthetic construct of novel peptide) [compound 19]	1.931
20 (KYQRRRRNYK; Synthetic construct of novel peptide) [compound 20]	2.553

Substance	mRNA level of Dspp gene, Mean
21 (KYQRKKKNYK; Synthetic construct of novel peptide) [compound 21]	1.893
22 (KYQRKRKNYK; Synthetic construct of novel peptide) [compound 22]	2.412
23 (KYQRKKRNYK; Synthetic construct of novel peptide) [compound 23]	2.171
24 (KYQRKRRNYK; Synthetic construct of novel peptide) [compound 24]	2.212
25 (KYQRRKKSYK; Synthetic construct of novel peptide) [compound 25]	2.371
26 (KYQRRKRSYK; Synthetic construct of novel peptide) [compound 26]	2.193
27 (KYQRRRKSYK; Synthetic construct of novel peptide) [compound 27]	1.993
28 (KYQRRRRSYK; Synthetic construct of novel peptide) [compound 28]	2.453
29 (KYQRKKKSYK; Synthetic construct of novel peptide) [compound 29]	1.883
30 (KYQRKRKSYK; Synthetic construct of novel peptide) [compound 30]	2.512
31 (KYQRKKRSYK; Synthetic construct of novel peptide) [compound 31]	2.371
32 (KYQRKRRSYK; Synthetic construct of novel peptide) [compound 32]	2.219
33 (KYRQRKKNKY; Synthetic construct of novel peptide) [compound 33]	1.712
34 (KYRQRKRNKY; Synthetic construct of novel peptide) [compound 34]	1.931
35 (KYRQRRKNKY; Synthetic construct of novel peptide) [compound 35]	1.983
36 (KYRQRRRNKY; Synthetic construct of novel peptide) [compound 36]	2.319
37 (KYRQKKKNKY; Synthetic construct of novel peptide) [compound 37]	1.597
38 (KYRQKRKNKY; Synthetic construct of novel peptide) [compound 38]	2.116
39 (KYRQKKRNKY; Synthetic construct of novel peptide) [compound 39]	1.712
40 (KYRQKRRNKY; Synthetic construct of novel peptide) [compound 40]	2.219

Substance	mRNA level of Dspp gene, Mean
41 (KYRQRKKSKY; Synthetic construct of novel peptide) [compound 41]	1.546
42 (KYRQRKRSKY; Synthetic construct of novel peptide) [compound 42]	1.586
43 (KYRQRRKSKY; Synthetic construct of novel peptide) [compound 43]	1.669
44 (KYRQRRRSKY; Synthetic construct of novel peptide) [compound 44]	1.793
45 (KYRQKKKSKY; Synthetic construct of novel peptide) [compound 45]	1.532
46 (KYRQKRKSKY; Synthetic construct of novel peptide) [compound 46]	1.887
47 (KYRQKKRSKY; Synthetic construct of novel peptide) [compound 47]	1.697
48 (KYRQKRRSKY; Synthetic construct of novel peptide) [compound 48]	1.558
49 (KYRQRKKNYK; Synthetic construct of novel peptide) [compound 49]	1.923
50 (KYRQRKRNYK; Synthetic construct of novel peptide) [compound 50]	1.887
51 (KYRQRRKNYK; Synthetic construct of novel peptide) [compound 51]	1.601
52 (KYRQRRRNYK; Synthetic construct of novel peptide) [compound 52]	2.019
53 (KYRQKKKNYK; Synthetic construct of novel peptide) [compound 53]	1.592
54 (KYRQKRKNYK; Synthetic construct of novel peptide) [compound 54]	1.437
55 (KYRQKKRNYK; Synthetic construct of novel peptide) [compound 55]	1.663
56 (KYRQKRRNYK; Synthetic construct of novel peptide) [compound 56]	1.701
57 (KYRQRKKSYK; Synthetic construct of novel peptide) [compound 57]	2.039
58 (KYRQRKRSYK; Synthetic construct of novel peptide) [compound 58]	1.998
59 (KYRQRRKSYK; Synthetic construct of novel peptide) [compound 59]	1.792
60 (KYRQRRRSYK; Synthetic construct of novel peptide) [compound 60]	2.107
